# US20130267680A1, “TOTAL CHEMICAL SYNTHESIS OF UBIQUITIN, UBIQUITIN MUTANTS AND DERIVATIVES THEREOF” (Stichting Het Nederlands kankerinstituut, priority 2010, published 2013)
# Assays:
# [1] = system: HAUSP/USP7; test: Binding of HAUSP/USP7 to ubiquitin-VME; details: Ub-VME 2 μM, USP7 1 μM, 60 min at 30° C.
# Protocol: Both Ub derivatives are routinely used to measure activity of deubiquitinating enzymes (DUBs). […] The structural integrity of synthetic UbAMC and UBRh110Gly, both prepared in accordance with the method of the present invention, was tested using the following assays.
# Binding of HAUSP/USP7 to ubiquitin-VME Assay buffer: 20 mM HEPES pH7.5 • 150 mM NaCl • 2 μM ZnCl2 • 10 mM MgCl2 • 2 mM DTT
# Reaction mixtures were incubated for 60 min at 30° C.
# Load 10 μL on gel (complete sample)
# Target sequence in this assay (Q93009 206-1102): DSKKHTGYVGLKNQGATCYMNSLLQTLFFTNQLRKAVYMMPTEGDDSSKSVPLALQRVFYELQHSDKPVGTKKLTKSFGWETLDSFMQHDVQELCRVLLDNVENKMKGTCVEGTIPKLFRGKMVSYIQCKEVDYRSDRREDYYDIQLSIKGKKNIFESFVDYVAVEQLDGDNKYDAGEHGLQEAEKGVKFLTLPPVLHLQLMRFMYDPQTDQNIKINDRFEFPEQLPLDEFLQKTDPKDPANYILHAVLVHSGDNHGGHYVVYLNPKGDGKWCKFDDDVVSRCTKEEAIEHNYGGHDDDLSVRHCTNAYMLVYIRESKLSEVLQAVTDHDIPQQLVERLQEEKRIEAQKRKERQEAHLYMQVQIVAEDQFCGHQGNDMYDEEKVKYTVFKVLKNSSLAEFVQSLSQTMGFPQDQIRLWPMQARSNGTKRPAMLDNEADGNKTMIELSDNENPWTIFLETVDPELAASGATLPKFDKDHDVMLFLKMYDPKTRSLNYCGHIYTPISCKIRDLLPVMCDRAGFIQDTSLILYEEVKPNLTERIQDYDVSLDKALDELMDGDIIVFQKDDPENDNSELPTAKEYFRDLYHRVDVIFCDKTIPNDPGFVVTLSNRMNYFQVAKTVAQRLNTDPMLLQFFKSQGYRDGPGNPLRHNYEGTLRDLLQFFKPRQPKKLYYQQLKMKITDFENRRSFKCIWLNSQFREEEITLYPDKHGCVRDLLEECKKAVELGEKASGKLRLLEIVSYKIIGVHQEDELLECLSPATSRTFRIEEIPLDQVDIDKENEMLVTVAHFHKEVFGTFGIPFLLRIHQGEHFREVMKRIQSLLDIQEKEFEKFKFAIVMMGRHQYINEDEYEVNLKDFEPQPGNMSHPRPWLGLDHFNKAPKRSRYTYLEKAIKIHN
# [2] = system: HAUSP/USP7; test: Ub-AMC/Ub-Rh110-Gly DUB assay with HAUSP/USP7; type: biochemical; details: 1 nM enzyme
# Protocol: (§1) FIG. 5: Hydrolysis of fluorogenic Ub derivatives by the deubiquitinating enzymes HAUSP/USP7 and UCH-L3. All assays contained 1 nM of enzyme, substrate concentration was varied.
# Assay 1: Commercial and synthetic Ub-AMC, prepared according to the present method are treated side by side with HAUSP/USP7 and compared.
# (§2) Assay 3: Ub-Rh110-Gly was treated with HAUSP/USP7 and UCH-L3.
# Usp7(206-1102) was expressed in E. coli from a synthetic construct and purified as described: (a) Shanmugham et al. J. Am. Chem. Soc. 2010, 132, 8834-8835; (b) Fernandez-Montalvan et al. Febs J. 2007, 274, […].
# (§3) assay buffer: 50 mM HEPES pH 7.5 • 100 mM NaCl • 1 mM EDTA • 0.05% Tween20 • 10 mM DTT • Reaction mixtures were incubated for 30 min at 25° C., measured every 5 minutes • 30 μL reactions • Proteins used: Ub-AMC (Commercial) • Ub-AMC (Synthetic) • Ub-Rh110-Gly (Synthetic) • USP7 full length • UCH-L3 All assays contained 1 nM DUB and the following concentrations of Ub:
# DUB activity on commercial (Sigma) and synthetic ubiquitin with a C-terminal fluorescent group, 7-amino-4-methylcoumarin (Ub-AMC) were performed at 25° C. in buffer containing 50 mM Hepes pH 7.5, 100 mM NaCl, 1 mM EDTA, 0.05% (w/v) Tween20, 10 mM DTT. The concentrations Ubiquitin-AMC and DUB are specified in the figures. Assays were performed in “Non binding surface flat bottom low flange” black 384-well plates (Corning) in 30 μl reactions. Kinetic data was collected in intervals of 5 min using a Fluostar Optima fluorescence plate reader (BMG Labtechnologies) at excitation and emission wavelengths of 355 nm and 460 nm, respectively for Ub-AMC. Experimental data was processed using Prism 4.03 (GraphPad Software, Inc.).
# Target sequence in this assay (Q93009 whole entry): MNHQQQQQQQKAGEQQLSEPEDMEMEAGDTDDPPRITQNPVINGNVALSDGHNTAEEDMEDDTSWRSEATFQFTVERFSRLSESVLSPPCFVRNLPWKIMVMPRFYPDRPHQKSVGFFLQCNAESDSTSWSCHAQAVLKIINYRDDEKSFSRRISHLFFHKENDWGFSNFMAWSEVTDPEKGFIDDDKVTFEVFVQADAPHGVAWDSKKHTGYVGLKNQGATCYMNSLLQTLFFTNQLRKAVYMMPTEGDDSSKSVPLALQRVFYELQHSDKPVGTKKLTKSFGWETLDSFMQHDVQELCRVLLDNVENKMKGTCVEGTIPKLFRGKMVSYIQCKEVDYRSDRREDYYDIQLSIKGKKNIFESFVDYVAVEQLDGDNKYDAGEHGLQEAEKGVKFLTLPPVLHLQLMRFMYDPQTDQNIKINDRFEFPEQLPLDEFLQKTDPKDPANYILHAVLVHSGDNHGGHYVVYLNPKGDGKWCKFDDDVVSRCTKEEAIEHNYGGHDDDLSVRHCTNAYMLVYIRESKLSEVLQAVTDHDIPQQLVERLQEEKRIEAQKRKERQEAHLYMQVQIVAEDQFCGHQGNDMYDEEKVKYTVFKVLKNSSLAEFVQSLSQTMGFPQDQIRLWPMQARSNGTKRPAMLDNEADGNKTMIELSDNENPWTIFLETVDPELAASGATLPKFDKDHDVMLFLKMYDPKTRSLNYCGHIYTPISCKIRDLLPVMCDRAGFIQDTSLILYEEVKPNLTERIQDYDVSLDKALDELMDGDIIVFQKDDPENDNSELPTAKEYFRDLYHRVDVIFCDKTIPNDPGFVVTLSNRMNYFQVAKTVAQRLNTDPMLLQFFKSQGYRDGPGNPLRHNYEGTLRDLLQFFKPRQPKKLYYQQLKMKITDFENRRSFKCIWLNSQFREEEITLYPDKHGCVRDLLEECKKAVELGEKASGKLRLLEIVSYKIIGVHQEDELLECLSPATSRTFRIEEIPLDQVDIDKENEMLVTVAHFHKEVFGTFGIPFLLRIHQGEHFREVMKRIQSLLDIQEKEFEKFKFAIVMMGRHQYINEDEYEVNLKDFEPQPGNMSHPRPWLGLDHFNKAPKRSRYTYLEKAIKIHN
# [3] = target: T1, UCH-L3 (Homo sapiens, UniProt P15374); test: Ub-AMC/Ub-Rh110-Gly DUB assay with UCH-L3; type: biochemical; details: 1 nM enzyme, substrate 0.06-15 μM, 25° C., 30 min
# T1 construct: made in house; host or cells: Escherichia coli
# T1 sequence (P15374 1-230): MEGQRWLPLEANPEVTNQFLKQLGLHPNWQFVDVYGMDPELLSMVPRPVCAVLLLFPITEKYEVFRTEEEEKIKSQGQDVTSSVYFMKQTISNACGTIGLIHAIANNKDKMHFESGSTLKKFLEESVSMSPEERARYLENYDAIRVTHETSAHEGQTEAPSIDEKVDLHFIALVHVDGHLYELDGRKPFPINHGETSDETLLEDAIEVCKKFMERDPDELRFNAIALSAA
# Protocol: as §1
# Assay 2. Synthetic Ub-AMC was treated with UCH-L3.
# as §2
# UCH-L3 in pRSET vector was obtained from Dr. Keith Wilkinson. UCH-L3 was expressed in Escherichia coli and purified as described in: C. N. Larsen, J. S. Price, K. D. Wilkinson, K. D. Biochemistry 1996, 35, 6735-6744.
# as §3
# DUB activity on commercial (Sigma) and synthetic ubiquitin with a C-terminal fluorescent group, 7-amino-4-methylcoumarin (Ub-AMC) were performed at 25° C. in buffer containing 50 mM Hepes pH 7.5, 100 mM NaCl, 1 mM EDTA, 0.05% (w/v) Tween20, 10 mM DTT. The concentrations Ubiquitin-AMC and DUB are specified in the figures. […] Kinetic data was collected in intervals of 5 min using a Fluostar Optima fluorescence plate reader (BMG Labtechnologies) at excitation and emission wavelengths of 355 nm and 460 nm, respectively for Ub-AMC. […]
reaction of active-site targeted probe with HAUSP/USP7 [1],"Km values with HAUSP/USP7 ([2]; substrate concentration varied, synthetic versus commercial UbAMC)",hydrolysis / turnover by UCH-L3 (recognition as substrate) [3],Substance,"hydrolysis / turnover by HAUSP/USP7 (recognition as substrate) ([2]; substrate 0.06-15 μM, 25° C., 30 min)","Michaelis-Menten kinetics comparison with USP7 ([2]; substrate concentration varied, commercial versus synthetic UbAMC (FIG. 5C))",hydrolysis / turnover by UCH-L3 (recognition as substrate) ([3]; listed as synthetic Ub-AMC)
reacted swiftly as expected,,,UbVME: active site directed probe Ub vinylmethyl ester which covalently modifies DUBs,,,
,comparable Km values,efficient turnover,"synthetic UbAMC: synthetic ubiquitin with a C-terminal fluorescent group, 7-amino-4-methylcoumarin; fluorogenic assay reagent",efficient turnover,identical kinetics,hydrolyzed and thus recognized as a substrate
